# Tested on: MV-4-11 cells
# Test: Gene expression microarray analysis (Affymetrix PrimeView) and GSEA
# Format: cell-based, human
# Set-up: RFU PODN (11730768_x_at) / Fold change /veh PODN (11730768_x_at) / RFU LINC00158 (11744669_a_at) / Fold change /veh LINC00158 (11744669_a_at) / RFU DUSP10 (11751237_a_at) / Fold change /veh DUSP10 (11751237_a_at) / RFU ID3 (11757404_x_at) / Fold change /veh ID3 (11757404_x_at) / RFU PLEKHG5 (11737974_s_at) / Fold change /veh PLEKHG5 (11737974_s_at) / RFU LRRC4B (11730491_at) / Fold change /veh LRRC4B (11730491_at) / RFU GIMAP4 (11747438_a_at) / Fold change /veh GIMAP4 (11747438_a_at) / RFU KRT8 (11758183_x_at) / Fold change /veh KRT8 (11758183_x_at) / RFU CNN1 (11734310_a_at) / Fold change /veh CNN1 (11734310_a_at) / RFU VPS37D (11726825_at) / Fold change /veh VPS37D (11726825_at) / RFU C10orf10 (11716522_x_at) / Fold change /veh C10orf10 (11716522_x_at) / RFU KIR2DL2 /// KIR2DL4 /// KIR2DL5A /// KIR2DL5B /// KIR2DS1 /// KIR2DS2 /// KIR2DS3 /// KIR2DS4 /// KIR3DL3 /// KIR3DL3 /// KIR3DS1 (11738374_at) / Fold change /veh KIR2DL2 /// KIR2DL4 /// KIR2DL5A /// KIR2DL5B /// KIR2DS1 /// KIR2DS2 /// KIR2DS3 /// KIR2DS4 /// KIR3DL3 /// KIR3DL3 /// KIR3DS1 (11738374_at) / RFU C1QL1 (11718748_at) / Fold change /veh C1QL1 (11718748_at) / RFU TMPRSS4 (11747572_a_at) / Fold change /veh TMPRSS4 (11747572_a_at) / RFU HAMP (11756126_x_at) / Fold change /veh HAMP (11756126_x_at) / RFU RNFT2 (11725882_a_at) / Fold change /veh RNFT2 (11725882_a_at) / RFU NR4A2 (11747474_a_at) / Fold change /veh NR4A2 (11747474_a_at) / RFU ABCC12 (11746883_a_at) / Fold change /veh ABCC12 (11746883_a_at) / RFU TMEM136 (11760407_x_at) / Fold change /veh TMEM136 (11760407_x_at) / RFU CLDN22 /// WWC2 (11732394_at) / Fold change /veh CLDN22 /// WWC2 (11732394_at) / RFU HLA-DPB1 (11760878_x_at) / Fold change /veh HLA-DPB1 (11760878_x_at) / RFU SPINT1 (11716480_a_at) / Fold change /veh SPINT1 (11716480_a_at) / RFU GAP43 (11754022_s_at) / Fold change /veh GAP43 (11754022_s_at) / RFU A4GNT (11735810_at) / Fold change /veh A4GNT (11735810_at) / RFU PRB3 (11715151_x_at) / Fold change /veh PRB3 (11715151_x_at) / RFU TUBB4B (11761932_at) / Fold change /veh TUBB4B (11761932_at) / RFU CAPN14 (11732068_a_at) / Fold change /veh CAPN14 (11732068_a_at) / RFU TMCC2 (11721928_a_at) / Fold change /veh TMCC2 (11721928_a_at) / RFU IRGQ (11745062_a_at) / Fold change /veh IRGQ (11745062_a_at) / RFU FAM174B (11720279_a_at) / Fold change /veh FAM174B (11720279_a_at) / RFU TMPRSS4 (11748680_a_at) / Fold change /veh TMPRSS4 (11748680_a_at) / RFU FAM212B (11763350_a_at) / Fold change /veh FAM212B (11763350_a_at) / RFU PLEKHG5 (11743358_a_at) / Fold change /veh PLEKHG5 (11743358_a_at) / RFU ZSCAN30 (11745921_a_at) / Fold change /veh ZSCAN30 (11745921_a_at) / RFU CMKLR1 (11741424_a_at) / Fold change /veh CMKLR1 (11741424_a_at) / RFU LOC101060620 /// MAPK8IP1 (11723275_at) / Fold change /veh LOC101060620 /// MAPK8IP1 (11723275_at) / RFU SPTSSB (11747773_x_at) / Fold change /veh SPTSSB (11747773_x_at) / RFU PRSS12 (11739890_at) / Fold change /veh PRSS12 (11739890_at) / RFU BIN1 (11741810_x_at) / Fold change /veh BIN1 (11741810_x_at) / RFU WNT11 (11732464_a_at) / Fold change /veh WNT11 (11732464_a_at) / RFU C10orf10 (11716521_a_at) / Fold change /veh C10orf10 (11716521_a_at) / RFU C5orf56 (11738089_at) / Fold change /veh C5orf56 (11738089_at) / RFU CYB561 (11721691_x_at) / Fold change /veh CYB561 (11721691_x_at) / RFU ANKRD19P (11752326_a_at) / Fold change /veh ANKRD19P (11752326_a_at) / RFU OR2T12 /// OR2T33 /// OR2T8 (11738714_s_at) / Fold change /veh OR2T12 /// OR2T33 /// OR2T8 (11738714_s_at) / RFU VCAN (11748164_a_at) / Fold change /veh VCAN (11748164_a_at) / RFU JSRP1 (11732532_at) / Fold change /veh JSRP1 (11732532_at) / RFU KRTAP10-11 (11738290_x_at) / Fold change /veh KRTAP10-11 (11738290_x_at) / RFU MYO3A (11730013_a_at) / Fold change /veh MYO3A (11730013_a_at) / RFU EBF3 (11725865_a_at) / Fold change /veh EBF3 (11725865_a_at) / RFU CAMK2N1 (11719241_x_at) / Fold change /veh CAMK2N1 (11719241_x_at) / RFU C5orf56 (11738088_a_at) / Fold change /veh C5orf56 (11738088_a_at) / RFU OLFML3 (11715873_a_at) / Fold change /veh OLFML3 (11715873_a_at) / RFU LOC100653217 /// NTM (11731650_a_at) / Fold change /veh LOC100653217 /// NTM (11731650_a_at) / RFU MAPK11 (11762145_a_at) / Fold change /veh MAPK11 (11762145_a_at) / RFU FIZ1 (11724087_x_at) / Fold change /veh FIZ1 (11724087_x_at) / RFU OASL (11726364_x_at) / Fold change /veh OASL (11726364_x_at) / RFU SOX15 (11748057_x_at) / Fold change /veh SOX15 (11748057_x_at) / RFU CD79A (11719716_a_at) / Fold change /veh CD79A (11719716_a_at) / RFU HIST1H1D (11736915_at) / Fold change /veh HIST1H1D (11736915_at) / RFU CASKIN2 (11723855_a_at) / Fold change /veh CASKIN2 (11723855_a_at) / RFU LOC730098 (11760151_x_at) / Fold change /veh LOC730098 (11760151_x_at) / RFU OR4N2 (11742367_at) / Fold change /veh OR4N2 (11742367_at) / RFU PRRT2 (11749266_a_at) / Fold change /veh PRRT2 (11749266_a_at) / RFU SNX32 (11753110_a_at) / Fold change /veh SNX32 (11753110_a_at) / RFU CDHR5 (11726645_a_at) / Fold change /veh CDHR5 (11726645_a_at) / RFU RCAN1 (11760418_a_at) / Fold change /veh RCAN1 (11760418_a_at) / RFU FAM167A (11723789_a_at) / Fold change /veh FAM167A (11723789_a_at) / RFU FAM26E (11764081_at) / Fold change /veh FAM26E (11764081_at) / RFU ISYNA1 (11749810_s_at) / Fold change /veh ISYNA1 (11749810_s_at) / RFU ACY1 (11761880_at) / Fold change /veh ACY1 (11761880_at) / RFU 11764098_at / Fold change /veh 11764098_at / RFU SAMD14 (11745864_x_at) / Fold change /veh SAMD14 (11745864_x_at) / RFU NPB (11741838_a_at) / Fold change /veh NPB (11741838_a_at) / RFU TMPRSS6 (11731388_a_at) / Fold change /veh TMPRSS6 (11731388_a_at) / RFU KRTAP10-2 (11738614_at) / Fold change /veh KRTAP10-2 (11738614_at) / RFU ARHGAP8 /// PRR5-ARHGAP8 (11727945_x_at) / Fold change /veh ARHGAP8 /// PRR5-ARHGAP8 (11727945_x_at) / RFU KRTAP5-7 /// NADSYN1 (11734609_at) / Fold change /veh KRTAP5-7 /// NADSYN1 (11734609_at) / RFU RASL12 (11751679_a_at) / Fold change /veh RASL12 (11751679_a_at) / RFU CDKN2B (11736163_a_at) / Fold change /veh CDKN2B (11736163_a_at) / RFU PRF1 (11729649_at) / Fold change /veh PRF1 (11729649_at) / RFU, ZNF638 /// ZNF638-IT1 / Fold change vs veh, ZNF638 /// ZNF638-IT1 / RFU, PANK3 / Fold change vs veh, PANK3 / RFU, SH3YL1 / Fold change vs veh, SH3YL1 / RFU, ZEB2 / Fold change vs veh, ZEB2 / RFU, NRIP1 / Fold change vs veh, NRIP1 / RFU, PTTG1IP / Fold change vs veh, PTTG1IP / RFU, CAPN2 / Fold change vs veh, CAPN2 / RFU, MED14 / Fold change vs veh, MED14 / RFU, SNORA58 / Fold change vs veh, SNORA58 / RFU, C1orf63 / Fold change vs veh, C1orf63 / RFU, LRRFIP1 / Fold change vs veh, LRRFIP1 / RFU, NDUFAF7 / Fold change vs veh, NDUFAF7 / RFU, SLC12A2 / Fold change vs veh, SLC12A2 / RFU, IBTK / Fold change vs veh, IBTK / RFU, ESF1 / Fold change vs veh, ESF1 / Fold change vs veh, TMEM50B / RFU, TAOK1 / Fold change vs veh, TAOK1 / RFU, ACBD3 / Fold change vs veh, ACBD3 / RFU, TMA16 / Fold change vs veh, TMA16 / RFU, RWDD3 / Fold change vs veh, RWDD3 / RFU, BCAT1 / Fold change vs veh, BCAT1 / RFU, EDEM3 / Fold change vs veh, EDEM3 / RFU, TMEM33 / Fold change vs veh, TMEM33 / RFU, WDR75 / Fold change vs veh, WDR75 / RFU, AHCTF1 / Fold change vs veh, AHCTF1 / RFU, TFRC / Fold change vs veh, TFRC / RFU, ZDHHC17 / Fold change vs veh, ZDHHC17 / RFU, NOM1 / Fold change vs veh, NOM1 / RFU, ARL8B / Fold change vs veh, ARL8B / RFU, ZBTB11 / Fold change vs veh, ZBTB11 / RFU, TAMM41 / Fold change vs veh, TAMM41 / RFU, KIAA1704 /// LOC100996395 / Fold change vs veh, KIAA1704 /// LOC100996395 / RFU, ING1 / Fold change vs veh, ING1 / RFU, TRMT61B / Fold change vs veh, TRMT61B / RFU, FUBP3 / Fold change vs veh, FUBP3 / RFU, TP53 / Fold change vs veh, TP53 / RFU, TNKS2 / Fold change vs veh, TNKS2 / RFU, ZFP14 / Fold change vs veh, ZFP14 / RFU, ACTR2 / Fold change vs veh, ACTR2 / RFU, PPP3R1 / Fold change vs veh, PPP3R1 / RFU, PIK3R1 / Fold change vs veh, PIK3R1 / RFU, HNRNPA1 / Fold change vs veh, HNRNPA1 / RFU, RNF170 / Fold change vs veh, RNF170 / RFU, ZNF28 / Fold change vs veh, ZNF28 / RFU, RNGTT / Fold change vs veh, RNGTT / RFU, OGT / Fold change vs veh, OGT / RFU, BRD1 / Fold change vs veh, BRD1 / RFU, MARS / Fold change vs veh, MARS / RFU, ZNF655 / Fold change vs veh, ZNF655 / RFU, FAHD1 / Fold change vs veh, FAHD1 / RFU, BDP1 / Fold change vs veh, BDP1 / RFU, LRRCC1 / Fold change vs veh, LRRCC1 / RFU, ARID1A / Fold change vs veh, ARID1A / RFU, ZNF146 / Fold change vs veh, ZNF146 / RFU, ZNF330 / Fold change vs veh, ZNF330 / RFU, GPN3 / Fold change vs veh, GPN3 / RFU, C9orf123 / Fold change vs veh, C9orf123 / RFU, N4BP2L2 / Fold change vs veh, N4BP2L2 / RFU, ARFIP1 / Fold change vs veh, ARFIP1 / RFU, FAM179B / Fold change vs veh, FAM179B / RFU, BCL10 / Fold change vs veh, BCL10 / RFU, UHRF1BP1L / Fold change vs veh, UHRF1BP1L / RFU, BET1 / Fold change vs veh, BET1 / RFU, CNOT2 / Fold change vs veh, CNOT2 / RFU, ZNF268 / Fold change vs veh, ZNF268 / Fold change vs veh, ZNF507 / RFU, DGCR2 / Fold change vs veh, DGCR2 / RFU, WDSUB1 / Fold change vs veh, WDSUB1 / Fold change vs veh, HSP90B1 /// MIR3652 / RFU, ADSS / Fold change vs veh, ADSS / RFU, GK / Fold change vs veh, GK / RFU, ZNF148 / Fold change vs veh, ZNF148 / RFU, TAF9 / Fold change vs veh, TAF9 / RFU, SLC1A5 / Fold change vs veh, SLC1A5 / RFU, SLMO2 / Fold change vs veh, SLMO2 / RFU, ABCC4 / Fold change vs veh, ABCC4 / RFU, LOC101060439 /// RAP1B / Fold change vs veh, LOC101060439 /// RAP1B / RFU, RFX7 / Fold change vs veh, RFX7 / RFU, GTPBP10 / Fold change vs veh, GTPBP10 / RFU, CNEP1R1 / Fold change vs veh, CNEP1R1 / RFU, BIVM-ERCC5 /// ERCC5 / Fold change vs veh, BIVM-ERCC5 /// ERCC5 / RFU, ILF3 / Fold change vs veh, ILF3 / RFU 11762660_at / Fold change /veh 11762660_at / RFU VCAN (11757783_s_at) / Fold change /veh VCAN (11757783_s_at) / RFU DDX43 (11728927_at) / Fold change /veh DDX43 (11728927_at) / RFU KRT8 (11758188_x_at) / Fold change /veh KRT8 (11758188_x_at) / RFU NKD1 (11759106_at) / Fold change /veh NKD1 (11759106_at) / RFU SRD5A1 (11742802_a_at) / Fold change /veh SRD5A1 (11742802_a_at) / RFU TPSAB1 /// TPSB2 (11721975_s_at) / Fold change /veh TPSAB1 /// TPSB2 (11721975_s_at) / RFU GSTM3 (11746129_a_at) / Fold change /veh GSTM3 (11746129_a_at) / RFU IL23R (11737362_x_at) / Fold change /veh IL23R (11737362_x_at) / RFU TMEM51 (11727254_a_at) / Fold change /veh TMEM51 (11727254_a_at) / RFU PIWIL2 (11732686_x_at) / Fold change /veh PIWIL2 (11732686_x_at) / RFU ORM1 (11744905_x_at) / Fold change /veh ORM1 (11744905_x_at) / RFU CCDC152 (11743942_at) / Fold change /veh CCDC152 (11743942_at) / RFU ECM1 (11717891_a_at) / Fold change /veh ECM1 (11717891_a_at) / RFU IL23R (11748794_a_at) / Fold change /veh IL23R (11748794_a_at) / RFU TNFAIP8L3 (11732012_x_at) / Fold change /veh TNFAIP8L3 (11732012_x_at) / RFU MBOAT4 (11741988_at) / Fold change /veh MBOAT4 (11741988_at) / RFU 11764193_at / Fold change /veh 11764193_at / RFU TMEM53 (11763286_at) / Fold change /veh TMEM53 (11763286_at) / RFU MAGEB2 (11727129_at) / Fold change /veh MAGEB2 (11727129_at) / RFU TMEM200A (11744735_a_at) / Fold change /veh TMEM200A (11744735_a_at) / RFU CCDC152 (11751479_a_at) / Fold change /veh CCDC152 (11751479_a_at) / RFU FAM211A (11726209_a_at) / Fold change /veh FAM211A (11726209_a_at) / RFU RGS16 (11746705_a_at) / Fold change /veh RGS16 (11746705_a_at) / RFU VCAN (11755009_s_at) / Fold change /veh VCAN (11755009_s_at) / RFU RHOB (11743442_s_at) / Fold change /veh RHOB (11743442_s_at) / RFU RGS16 (11720943_a_at) / Fold change /veh RGS16 (11720943_a_at) / RFU RGS16 (11720944_at) / Fold change /veh RGS16 (11720944_at) / RFU, VPS4B / Fold change vs veh, VPS4B / RFU, CREB1 / Fold change vs veh, CREB1 / RFU, DNAJC13 / Fold change vs veh, DNAJC13 / RFU, GNAQ / Fold change vs veh, GNAQ / RFU, CDK5R1 / Fold change vs veh, CDK5R1 / RFU, ZRANB3 / Fold change vs veh, ZRANB3 / RFU, CUL4A / Fold change vs veh, CUL4A / RFU, CCNY / Fold change vs veh, CCNY / RFU, UFL1 / Fold change vs veh, UFL1 / RFU, COG3 / Fold change vs veh, COG3 / RFU, DIAPH2 / Fold change vs veh, DIAPH2 / RFU, SKA2 / Fold change vs veh, SKA2 / RFU, AFF3 / Fold change vs veh, AFF3 / RFU, LMF1 / Fold change vs veh, LMF1 / RFU, IPO11 / Fold change vs veh, IPO11 / RFU, DFFB / Fold change vs veh, DFFB / RFU, FOXP1 / Fold change vs veh, FOXP1 / RFU, CARD8 / Fold change vs veh, CARD8 / RFU, STRN3 / Fold change vs veh, STRN3 / RFU, ADK / Fold change vs veh, ADK / RFU, RASSF2 / Fold change vs veh, RASSF2 / RFU, WIPF1 / Fold change vs veh, WIPF1 / RFU, LARP1B / Fold change vs veh, LARP1B / RFU, RASA1 / Fold change vs veh, RASA1 / RFU, RB1 / Fold change vs veh, RB1 / RFU, PPFIA1 / Fold change vs veh, PPFIA1 / RFU, MAT2A / Fold change vs veh, MAT2A / RFU, CCT5 / Fold change vs veh, CCT5 / RFU, WDR92 / Fold change vs veh, WDR92 / RFU, CUX1 / Fold change vs veh, CUX1 / RFU, TTC7A / Fold change vs veh, TTC7A / RFU, TMEM135 / Fold change vs veh, TMEM135 / RFU, DEPTOR / Fold change vs veh, DEPTOR / RFU, CPM / Fold change vs veh, CPM / RFU, DNAJB6 / Fold change vs veh, DNAJB6 / RFU, CACNA2D3 / Fold change vs veh, CACNA2D3 / RFU, DTX4 / Fold change vs veh, DTX4 / RFU, TFCP2 / Fold change vs veh, TFCP2 / RFU, GMCL1 /// GMCL1P1 / Fold change vs veh, GMCL1 /// GMCL1P1 / RFU, AEBP2 / Fold change vs veh, AEBP2 / RFU, SNHG1 /// SNORD22 /// SNORD25 /// SNORD26 /// SNORD27 /// SNORD28 /// SNORD29 /// SNORD31 / Fold change vs veh, SNHG1 /// SNORD22 /// SNORD25 /// SNORD26 /// SNORD27 /// SNORD28 /// SNORD29 /// SNORD31 / Fold change (Aza/veh), C12orf56 (ProbeSet 11735607_a_at) / Fold change (ACY-1035/veh), C12orf56 (ProbeSet 11735607_a_at) / Fold change (Aza/veh), FGFR1OP (ProbeSet 11751329_s_at) / Fold change (ACY-1035/veh), FGFR1OP (ProbeSet 11751329_s_at) / Fold change (Aza/veh), VPS36 (ProbeSet 11739960_a_at) / Fold change (ACY-1035/veh), VPS36 (ProbeSet 11739960_a_at) / RFU SYPL1 (11715823_x_at) / Fold change /veh SYPL1 (11715823_x_at) / RFU IGFBP7 (11715501_s_at) / Fold change /veh IGFBP7 (11715501_s_at) / RFU REEP3 (11722064_at) / Fold change /veh REEP3 (11722064_at) / RFU IGLL1 (11728026_x_at) / Fold change /veh IGLL1 (11728026_x_at): dose or concentration left out as unconfirmed
# Settings: MV-4-11 cells, 48 hours
compound,measurement,value
Nc1ccc(-c2cccs2)cc1NC(=O)c1ccc2c(c1)cc(C1CC1)n2CCN1CCOCC1 [ACY-1035],Fold change /veh HAMP (11756126_x_at),0.97

# — article PMC5218480 (PLoS ONE, 2017)
